# Experimental data published in PMC10604990, “Characterization and Investigation of Novel Benzodioxol Derivatives as Antidiabetic Agents: An In Vitro and In Vivo Study in an Animal Model” (Biomolecules, 2023).
# Where two headings read alike, the source gives them in different places.
# How the values were obtained:
# Hek293t normal cell line = experiment: MTS cytotoxicity assay, Hek293t normal cell line; assay type: cell-based; conditions: 72 h
# Method: (§1) Cultivation of the cancer cell lines MCF-7, Hep3B, HepG2, and Caco-2 HeLa was conducted in RPMI 1640 medium, whereas LX-2, B16-F1, and HEK-293T cells were grown in DMEM medium. These cells were incubated at 37 °C in a 5% CO2 atmosphere within a humid setting. In a 96-well plate, 1000 cells were seeded in each well. Following a 24 h incubation, they were exposed to various concentrations of Ia-IIe compounds (300, 100, 50, and 10 µM) for 72 h. The Cell-Tilter 96® (Promega Corporation, Madison, WI, USA) Aqueous One Solution Cell Proliferation (MTS) bioassay was utilized to determine the cell viability post-culture. For this assay, 90 µL of medium and 10 µL of MTS solution were added to every well, and the plates were then placed in a 37 °C environment for 2 to 4 h. The absorbance was subsequently assessed at a wavelength of 490 nm using a UV–Vis spectrophotometer.
# Caco-2 = experiment: MTS cytotoxicity assay, Caco-2; assay type: cell-based
# Method: as §1
# HepG2 = experiment: MTS cytotoxicity assay, HepG2; assay type: cell-based
# Method: as §1
# Hep3B = experiment: MTS cytotoxicity assay, Hep3B; assay type: cell-based; conditions: 72 h
# Method: as §1
# MCF-7 = experiment: MTS cytotoxicity assay, MCF-7; assay type: cell-based
# Method: as §1
# HeLa = experiment: MTS cytotoxicity assay, HeLa; assay type: cell-based; conditions: 72 h
# Method: as §1
# LX-2 = experiment: MTS cytotoxicity assay, LX-2; assay type: cell-based
# Method: as §1
# α-amylase [1] = target: T1, α-amylase (Homo sapiens, UniProt P04746); conditions: control compound IIe; cited from earlier work
# T1 sequence (P04746 16-511): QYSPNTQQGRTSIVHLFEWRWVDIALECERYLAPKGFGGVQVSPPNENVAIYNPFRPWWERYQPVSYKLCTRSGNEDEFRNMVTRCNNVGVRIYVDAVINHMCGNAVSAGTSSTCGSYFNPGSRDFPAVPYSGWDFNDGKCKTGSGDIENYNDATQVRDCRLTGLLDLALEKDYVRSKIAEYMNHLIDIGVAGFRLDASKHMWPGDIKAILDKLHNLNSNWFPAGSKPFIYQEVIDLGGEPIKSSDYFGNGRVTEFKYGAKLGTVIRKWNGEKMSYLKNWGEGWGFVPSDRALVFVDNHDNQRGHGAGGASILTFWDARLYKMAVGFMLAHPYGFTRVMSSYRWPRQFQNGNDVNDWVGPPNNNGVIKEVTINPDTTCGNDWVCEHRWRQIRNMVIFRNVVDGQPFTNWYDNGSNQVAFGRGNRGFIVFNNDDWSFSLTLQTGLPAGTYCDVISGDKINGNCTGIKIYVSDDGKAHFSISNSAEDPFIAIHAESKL
# α-amylase [2] = target: T1, α-amylase; experiment: α-amylase inhibition, DNSA method; assay type: biochemical
# Method: The experiment was conducted using the 3,5-dinitrosalicylic acid (DNSA) approach. Buffer solutions were prepared, containing 20 mm of both sodium phosphate monobasic and sodium phosphate dibasic, and were augmented with 6.7 mm sodium chloride (NaH2PO4 and Na2HPO4, each at 6.7 mm NaCl, pH 6.9). A beaker was filled partially with NaH2PO4 and NaCl solution and stirred magnetically, and the pH was meticulously calibrated using a specialized electrode. The desired pH of 6.9 was achieved by adding more NaH2PO4 and NaCl to the solution.
# The stock solution consisted of synthesized molecules at a 1 mg/mL concentration, harmoniously blended with no less than 10% DMSO in a 1:100 dilution. This mixture was then united with a buffer composed of Na2HPO4/NaH2PO4 (0.02 M) and NaCl (0.006 M), maintaining a pH of 6.9. From this, working solutions were created at concentrations ranging from 0.1 to 100 µM. These comprised 0.01, 0.1, 0.5, 1, and 5 mL of the synthesized molecules diluted with the pH-adjusted buffer and brought to a total volume of 10 mL using VF (10 mL).
# This transformative amalgam journeyed to attain a final volume of 100 mL, seamlessly infused with the phosphate buffer discussed earlier, harmonizing within a 100 mL volumetric flask (VF). Meanwhile, the starch solution, poised at a concentration of 1% (w/v), saw the suspension of 1000 mg of starch in 100 mL of distilled water, orchestrated with finesse within a 100 mL VF. This aqueous symphony unfolded in a temperate embrace of 37 °C within a water bath, occasionally stirring to deter any starch precipitation inklings.
# The overture of this reaction was orchestrated by DNSA—a reactive virtuoso that commences its dance upon encountering reducing sugars, conjuring forth 3-amino-5-nitro salicylic acid, a spectral charmer at the wavelength of around 540 nm. The creation of DNSA itself, an artful process, saw the dissolution of 12 g of sodium potassium tartrate tetrahydrate within 8.0 mL of 2 M NaOH, further entwined with 20 mL of the enchanted 96 mm 3.5-dinitrosalicylic acid solution. Thus, the stage was set for this chemical ballet, where reactions waltzed, and absorbance painted a canvas of molecular magic. […]
# The climax of this reaction narrative was unveiled as 200 μL of DNSA entered the stage, promptly followed by a vigorous boiling performance for 10 min, orchestrated at the harmonious temperature range of 85 to 90 °C. […] In a final crescendo, the resounding absorbance at 540 nm resounded as it was masterfully measured utilizing the UV-Visible spectrophotometer.
# In order to produce the initial state, the blank canvas was used to substitute the synthesized chemicals, adding 200 μL of buffer. […] This captivating performance culminated with quantifying enzyme inhibitory activity expressed as a percentage of inhibition. […]
# cancer cell lines = experiment: MTS cytotoxicity assay, range over cell lines; assay type: cell-based
# Method: as §1
# α-amylase [3] = target: T1, α-amylase; conditions: cited from earlier work
# [4] = tested on: streptozotocin-induced diabetic mice; experiment: In vivo hypoglycemic effect in STZ-induced diabetic mice; conditions: five daily i.p. doses of 10 mg/kg, fasting, 252.2 mg/dL before treatment, untreated diabetes group 274.25 mg/dL
# Text: The mice-related investigations were meticulously conducted, adhering strictly to the protocols outlined by the Association for Assessment and Accreditation of Laboratory Animal Care International. The ethical underpinning of these experiments was formally acknowledged, having secured the approval of the Institutional Review Board of the Animal House and Use Committee at An-Najah National University (approval number: Med. June. 2023/9).
# The study’s protagonists consisted of 18 healthy adult mice gracing the stage with a weight symphony ranging from 17 to 27 g. These cherished participants were thoughtfully accommodated in groups of three within the hospitable confines of the animal facility. In an overture of preparation, the mice were granted 7 days to acquaint themselves with the ambiance of the animal facility, enveloped within the embrace of controlled temperature conditions, a harmonious 25 ± 2 °C.
# In the experiment, the mice were subjected to diabetes induction via an intraperitoneal (i.p.) injection of streptozotocin (STZ). […] In order to ascertain the induction of diabetes, the fasting blood glucose levels of the mice were assessed on the fourth day after the injection of STZ. […]
# In this research, the fasting blood glucose levels for all groups were measured on the first day before the induction of diabetes using a streptozotocin (STZ) injection. […]
Compound,"IC50 (Hek293t normal cell line; Homo sapiens, HEK-293T)","IC50 (Caco-2; Homo sapiens, Caco-2, 72 h)","IC50 (HepG2; Homo sapiens, HepG2, 72 h)","IC50 (Hep3B; Homo sapiens, Hep3B)","IC50 (MCF-7; Homo sapiens, MCF7, 72 h)","IC50 (HeLa; Homo sapiens, HeLa)","IC50 (LX-2; Homo sapiens, LX-2, 72 h)",further results
"COc1cc(NC(=O)c2ccc3c(c2)OCO3)cc(OC)c1 [IIe, N-(3,5-dimethoxyphenyl)benzo[d][1,3]dioxole-5-carboxamide]",> 300 µM,> 300 µM,> 300 µM,> 300 µM,> 300 µM,> 300 µM,183 ± 2 µM,IC50 (α-amylase [1]): 15 ± 3.52 µM
"COc1ccccc1Oc1ccc(NC(=O)c2ccc3c(c2)OCO3)cc1 [IId, N-(4-(2-methoxyphenoxy)phenyl)benzo[d][1,3]dioxole-5-carboxamide]",> 300 µM,> 300 µM,55.3 ± 2.72 µM,65.2 ± 2.53 µM,55.8 ± 2.51 µM,26.6 ± 2.41 µM,31.4 ± 2.71 µM,"IC50 (α-amylase [2]): 5.76 ± 1.92 µM; IC50 (cancer cell lines; Homo sapiens, Caco-2, four cancer cell lines / all cell lines except Caco-2): 26 to 65 µM; IC50 (cancer cell lines; four cancer cell lines / all cell lines except Caco-2): 26.6 to 65.2 µM"
"Oc1cc(O)cc(Oc2c(O)cc(Oc3c(O)cc(O)cc3O)cc2O)c1 [DDBT, 2-(4-(3,5-dihydroxyphenoxy)-3,5-dihydroxyphenoxy) benzene-1,3,5-triol]",,,,,,,,IC50 (α-amylase [3]): 8.5 µM
COc1cc(OC)cc(C(=O)c2ccc3c(c2)OCO3)c1 [St.3],,,,,,,,IC50 (α-amylase [3]; earlier work of the same team): 15 µM
"COc1cc(NC(=O)c2ccc3c(c2)OCO3)cc(OC)c1OC [IIb, N-(3,4,5-trimethoxyphenyl)benzo[d][1,3]dioxole-5-carboxamide]",> 300 µM,> 300 µM,> 300 µM,> 300 µM,> 300 µM,> 300 µM,96.6 ± 2.7 µM,
"O=C(Nc1ccccc1)c1ccc2c(c1)OCO2 [IIa, N-phenylbenzo[d][1,3]dioxole-5-carboxamide]",> 150 µM,> 300 µM,> 300 µM,> 300 µM,> 300 µM,> 300 µM,> 300 µM,IC50 (α-amylase [2]): 0.85 ± 0.18 µM; IC50 (Hek293t normal cell line): > 300 µM
"O=c1[nH]cc(F)c(=O)[nH]1 [Compound 5-FU, reference compound]",,,,,,,,IC50 (Caco-2; 72 h): 4.75 ± 1.71 µM; IC50 (HepG2; 72 h): 4.07 ± 1.42 µM; IC50 (Hep3B): 5.11 ± 1.67 µM; IC50 (MCF-7; 72 h): 6.51 ± 1.82 µM; IC50 (HeLa): 7.79 ± 1.6 µM; IC50 (LX-2; 72 h): 0.178 ± 0.11 µM
"COc1cc(NC(=O)Cc2ccc3c(c2)OCO3)c(OC)cc1Cl [Ia, 2-(benzo[d][1,3]dioxol-5-yl)-N-(4-chloro-2,5-dimethoxyphenyl)acetamide]",> 300 µM,> 300 µM,169 ± 2.16 µM,197 ± 1.99 µM,124 ± 2.73 µM,43.6 ± 2.97 µM,70.6 ± 2.45 µM,IC50 (α-amylase [2]): 16.8 ± 1.55 µM
"COc1cccc2c1C(=O)c1c(O)c3c(c(O)c1C2=O)C[C@@](O)(C(=O)CO)C[C@@H]3O[C@H]1C[C@H](N)[C@H](O)[C@H](C)O1 [DOX, reference compound]",,,,,,,,IC50 (Hek293t normal cell line): 0.038 ± 0.02 µM; IC50 (Caco-2; 72 h): 0.024 ± 0.001 µM; IC50 (HepG2; 72 h): < 0.01 µM; IC50 (Hep3B): 0.025 ± 0.005 µM; IC50 (MCF-7; 72 h): 0.053 ± 0.009 µM; IC50 (HeLa): < 0.01 µM; IC50 (LX-2; 72 h): 0.21 ± 0.12 µM
COC(=O)Cc1cc2c(cc1C(=O)c1ccccc1Br)OCO2 [St.2],,,,,,,,IC50 (α-amylase [3]; earlier work of the same team): 6.81 µM
"O=C(Nc1cccc(C(F)(F)F)c1)c1ccc2c(c1)OCO2 [IIc, N-(3-(trifluoromethyl)phenyl)benzo[d][1,3]dioxole-5-carboxamide]",> 150 µM,> 300 µM,> 300 µM,> 300 µM,> 300 µM,> 300 µM,> 300 µM,IC50 (Hek293t normal cell line): 156 ± 2.98 µM; blood glucose level after treatment [4]: 173.8 mg/dL
"O=C(Cc1ccc2c(c1)OCO2)Nc1ccccc1 [Ib, 2-(benzo[d][1,3]dioxol-5-yl)-N-phenylacetamide]",269.2 ± 1.73 µM,> 300 µM,> 300 µM,> 300 µM,> 300 µM,> 300 µM,280.6 ± 2.33 µM,
"COc1ccc(OC)c(NC(=O)Cc2ccc3c(c2)OCO3)c1 [Ic, 2-(benzo[d][1,3]dioxol-5-yl)-N-(2,5-dimethoxyphenyl)acetamide]",207 ± 2.59 µM,> 300 µM,> 300 µM,> 300 µM,> 300 µM,> 300 µM,209 ± 2.2 µM,IC50 (α-amylase [2]): 16.4 ± 1.58 µM
N#C/C=C1/C=C(c2ccc(Br)cc2)N=C2Sc3ccccc3N21 [St.1],,,,,,,,IC50 (α-amylase [3]): 15.3 µM
